This passage reports GI50 and TGI results from PubChem BioAssay (NCI).

Several values for one entry are separate records, joined by “and”; a condition that tells them apart may be missing. Equal values may be shown once.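 Grown in 96-well plates, cells were treated for 48 hours with each compound at five concentrations. Insufficient inhibition: endpoint recorded as highest concentration tested. Abbreviation: GI50, concentration required for 50% inhibition of growth. TGI is the concentration that stops growth completely.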

What all share (experiment): inhibition of tumour cell growth, NCI panel, 48 h
In test [1] the test system is DU-145 prostate.
The test system of test [2] is HOP-62 NSCLC.
Test [3] deals with LOX IMVI melanoma.
Test [4] deals with MDA-MB-231 breast.
The test system of test [5] is NCI-H460 lung.
For test [6], the system named is NCI-H522 lung.
For test [7], the system named is OVCAR-3 ovarian.
In test [8] the test system is OVCAR-4 ovarian.
For test [9], the system named is SNB-19 CNS.
Test [10] deals with UACC-62 melanoma.

Turning to `c1ccc2nc(Cn3c[n+](Cc4ccc5ccccc5n4)c4ccccc43)ccc2c1`, the GI50 was 4.55 µM in [1]; 2.97 µM in [2]; 1.91 µM in [3]; 1.59 µM in test [4]; 2.8 µM in test [5]; 1.56 µM in test [6]. Besides, the GI50 in [7] was 1.6 µM; in test [8] it was 1.49 µM; in [9], 2.22 µM; in test [10], 1.34 µM. Further, the TGI in test [1] stood at 17 µM; in test [2], 13.7 µM; in test [3], 7.8 µM; in test [4], 4.46 µM; in test [5], 12.3 µM; in test [6], 9.72 µM. Besides, the TGI in test [7] is 4.99 µM; in test [8], 11.6 µM; in test [9] it was 10.4 µM; in test [10], 3.51 µM.

As for `CCN1C(=O)N(CC)C2C1NN=c1s/c(=C3\C(=O)N(C(C)C)c4ccccc43)c(=O)n12` (stereo not given), the GI50 in test [1] was 0.377 µM; in test [2], 0.441 µM; in [3] it was 0.463 µM; in test [4], 0.434 µM; in test [5], 0.354 µM; in test [6] it was 0.465 µM. Besides, the GI50 in test [7] was 0.294 µM; in test [8] it was 1.6 µM; in test [9], 0.44 µM; in test [10] it was 0.466 µM. Also, the TGI in [1] is 3.13 µM; in test [2], 42.7 µM; in test [3], above 100 µM; in test [4], 15.4 µM; in test [5] it was above 100 µM; in test [6], above 100 µM. Further, the TGI in test [7] is 0.841 µM; in test [8] it was above 100 µM; in [9] it was above 100 µM; in test [10], above 36.2 µM.

Turning to `O=C(O)CS(=O)(=O)C(c1ccccc1)c1ccccc1`, the TGI in test [1], in [2], in test [3], in test [4], in test [5] and in test [6] was above 100 µM each time. For the same molecule, the TGI in [7], in [8], in [9] and in [10] was above 100 µM throughout.

As for `N#CC(C#N)=Cc1ccc(-c2ccc(-c3nc4ccccc4s3)cc2)o1`, the GI50 was 18.2 µM in test [1]; 11.4 µM in [2]; 15.1 µM in [3]; 19.8 µM in [4]; 30.1 µM in test [5]; 17.8 µM in test [6]. For the same molecule, the GI50 in [7] is 66.9 µM; in [8] it was 30.5 µM; in [9], 30 µM; in test [10] it was 21.7 µM. Also, the TGI in test [1] was 78.2 µM; in [2], 44.2 µM; in test [3], 30.3 µM; in test [4], 37.8 µM; in [5] it was above 100 µM; in test [6], 51.8 µM. Besides, the TGI was above 100 µM in test [7], above 100 µM in [8], 84.3 µM in [9] and 70.3 µM in [10].

In the case of `Nc1ncnc2sc(=S)c3c(c12)CCC3`, the GI50 is 19.1 µM in test [1]; 46.4 µM in [2]; 31.8 µM in test [3]; 30.4 µM in [4]; 35.1 µM in [5]; 47.1 µM in test [6]. For the same molecule, the GI50 in test [7] is 30.7 µM; in test [8], 69.8 µM; in [9], 29.2 µM; in test [10], 27.8 µM. The TGI was 57.4 µM in test [1]; above 100 µM in [2]; above 100 µM in test [3]; above 100 µM in [4]; above 100 µM in [5]; above 100 µM in test [6]. The TGI is above 100 µM in test [7], above 100 µM in test [8], 82.9 µM in test [9] and 85.2 µM in [10].

For the molecule `O=C(O)CSSCC(=O)O`, the TGI in test [1], in test [2], in [3], in [4], in test [5] and in test [6] was above 100 µM in each case. Further, the TGI in test [7], in test [8], in [9] and in [10] was above 100 µM in each case.

For the molecule `O=C(Nc1cccc(Cl)c1)Nc1ncc(CCNc2ncnc3ccsc23)s1`, the GI50 in test [1] was 4.59 µM and 2.74 µM; in test [2], 2.37 µM and 1.41 µM; in test [3] it was 1.38 µM and 1.2 µM; in [4] it was 3.38 µM and 2.67 µM; in [5], 0.114 µM and 0.991 µM; in [6], 1.76 µM and 1.34 µM. In addition, the GI50 is 4.06 µM and 1.06 µM in test [7]; 2.1 µM and 2.93 µM in [8]; 11.2 µM and > 10 µM in [9]; 1.1 µM in test [10]. For the same molecule, the TGI is 20.5 µM and > 10 µM in test [1]; 15.3 µM and > 10 µM in test [2]; above 43.9 µM in test [3]; 17.4 µM and > 10 µM in test [4]; above 72.2 µM in test [5]; 9.89 µM and > 10 µM in test [6]. Moreover, the TGI in [7] is 17.1 µM and > 10 µM; in test [8], 11.9 µM and > 10 µM; in test [9] it was 26.9 µM and > 10 µM; in test [10], 11.7 µM.

As for `O=c1cc(CNc2cc(F)cc(F)c2)c2ccc(I)cc2[nH]1`, the GI50 is 1.69 µM in [1]; 1.98 µM in test [2]; 0.679 µM in [3]; 77.8 µM in test [4]; 0.427 µM in test [5]; 0.305 µM in [6]. Also, the GI50 in [7] was 0.336 µM; in test [8] it was 72.7 µM; in [9] it was 0.637 µM; in test [10], 0.508 µM. Besides, the TGI in [1], in test [2], in test [3], in test [4], in [5] and in test [6] was above 100 µM in each case. In addition, the TGI in [7] is 39.6 µM; in test [8] it was above 100 µM; in test [9], above 100 µM; in test [10], above 100 µM.

For the molecule `COc1ccc(Cn2nc(-c3cc(OC)c(OC)c(OC)c3)c3c2CCc2cnoc2-3)cc1OC`, the GI50 was 13.2 µM in test [1]; 6.35 µM in test [2]; 3.02 µM in [3]; 8 µM in test [4]; 3.28 µM in test [5]; 3.17 µM in test [6]. The GI50 was 3.29 µM in [7], 4.96 µM in [8], 7.99 µM in [9] and 3.78 µM in [10]. The TGI in test [1] is above 100 µM; in [2], 82.7 µM; in test [3], above 100 µM; in [4] it was above 100 µM; in test [5], above 100 µM; in test [6], above 100 µM. For the same molecule, the TGI in test [7] is 9.61 µM; in test [8], 83.9 µM; in test [9], above 100 µM; in test [10], 56.5 µM.

With `COc1cc2c(cc1OC)-c1ccc3cc4c(cc3c1N(CCN1CCCC1)C2)OCO4`, the GI50 in [1] is 0.376 µM; in test [2], 0.376 µM; in test [3] it was 0.309 µM; in test [4], 1.27 µM; in test [5], 0.289 µM; in test [6], 0.217 µM. Besides, the GI50 in test [7] was 0.854 µM; in test [8], 0.858 µM; in test [9], 0.543 µM; in test [10], 1.07 µM. The TGI worked out at 2.5 µM in test [1]; 1.93 µM in [2]; 1.39 µM in test [3]; 3.3 µM in test [4]; 1.17 µM in test [5]; 1.43 µM in test [6]. The TGI in test [7] came out at 2.23 µM; in test [8], 6.49 µM; in test [9] it was 1.85 µM; in [10], 3 µM.

Regarding `Cc1ccc2[nH]c(C(=O)NN3C(=O)CSC34CCCCC4C)c(-c3ccccc3)c2c1` (stereo not given), the GI50 is 18.2 µM in test [1]; 18 µM in test [2]; 18.9 µM in test [3]; 17 µM in test [4]; 18.2 µM in test [5]; 13.1 µM in test [6]. Further, the GI50 in [7] was 13.9 µM; in [8] it was 16.5 µM; in test [9] it was 19.2 µM; in test [10] it was 12.8 µM. The TGI in test [1] worked out at 44.1 µM; in test [2], 33.9 µM; in test [3], 35.6 µM; in test [4], 34.5 µM; in test [5] it was 43.7 µM; in [6] it was 27.9 µM. The TGI in test [7] was 30.1 µM; in test [8], 34.2 µM; in [9], 42.6 µM; in test [10], 26.8 µM.

Take `C=C1C(=O)O[C@@H]2C1CC(=O)C(C)CC/C=C(\C)CCC[C@H](C)[C@H]2OC(C)=O` (stereo not given in full): the GI50 was 15 µM in test [1]; 18.2 µM in test [2]; 2.15 µM in test [3]; 15.5 µM in test [4]; 21.2 µM in test [5]; 15.9 µM in test [6]. For the same molecule, the GI50 in [7] is 10.2 µM; in test [8] it was 15.2 µM; in [9], 25.5 µM; in test [10] it was 11.6 µM. Moreover, the TGI in [1] came to 31.7 µM; in test [2], 33.3 µM; in test [3], 6.22 µM; in test [4] it was 33.5 µM; in test [5], 43.6 µM; in test [6] it was 41.6 µM. The TGI is 21.8 µM in test [7], 32 µM in [8], above 100 µM in [9] and 24.5 µM in test [10].

Regarding `Fc1ccc(-c2nc3n(c2-c2ccncc2)CCS3)cc1`, the GI50 in test [1], in test [2], in test [3], in [4], in [5] and in test [6] was above 25 µM in each case. For the same molecule, the GI50 in test [7] is above 25 µM; in test [8], 9.67 µM; in [9] it was above 25 µM; in test [10] it was above 25 µM. For the same molecule, the TGI in [1], in test [2], in test [3], in test [4], in test [5] and in [6] was above 25 µM in each case. The TGI in [7], in [8], in test [9] and in test [10] was above 25 µM each time.

Turning to `Nc1ncnc2c1ccn2C1OC2COP(=O)(O)OC2C1O` (stereo not given), the TGI in test [1] is above 100 µM; in test [2] it was 11.2 µM; in test [3] it was 1.34 µM; in test [4], 12.2 µM; in test [5] it was 12.9 µM; in test [6], 1.07 µM. In addition, the TGI in test [7] was above 96.3 µM; in test [8], 9.6 µM; in [9] it was above 75.9 µM; in test [10] it was 1.45 µM.

For `N#Cc1ncc(/N=C/c2ccc(N(CCCl)CCCl)cc2)s1`, the GI50 in [1] was 5.62 µM; in test [2] it was 17.9 µM; in [3], 6.89 µM; in test [4], 50.2 µM; in test [5], 3.31 µM; in test [6], 29.8 µM. Further, the GI50 in test [7] was 14.5 µM; in [8], 41.8 µM; in test [9] it was 77.7 µM; in test [10], 3.09 µM. Moreover, the TGI in test [1] is 57.1 µM; in test [2], above 100 µM; in [3] it was above 100 µM; in test [4], above 100 µM; in [5] it was 66.8 µM; in [6], above 100 µM. Also, the TGI in [7] was 45 µM; in test [8] it was above 100 µM; in test [9] it was above 100 µM; in [10] it was 28.7 µM.

In the case of `CSc1nnc(CCSc2ccnc3c(C(F)(F)F)cccc23)o1`, the GI50 in test [1] was above 100 µM; in [2] it was 51.7 µM; in [3], above 100 µM; in test [4], above 100 µM; in [5], above 100 µM; in [6] it was above 100 µM. For the same molecule, the GI50 in [7] is 91.9 µM; in test [8], 40.7 µM; in test [9], 61.6 µM; in [10], above 100 µM. The TGI in test [1], in [2], in [3], in [4], in [5] and in test [6] was above 100 µM throughout. The TGI in test [7], in test [8], in test [9] and in test [10] was above 100 µM in each case.
